pIC50: −log10 of the molar value.
Columns and labels:
[1] = test system: Neural-crest derived PC12 cells; experiment: APOPercentage apoptosis assay, serum-deprivation induced apoptosis of PC12 cells; format: cell-based, rat; conditions: Rattus norvegicus, PC-12, absence of serum 12 hours, ApoPercentage assay (FIG. 2), read-out: IC50 of anti-apoptotic, cytoprotective effect
Description: Neural-crest derived PC12 cells were maintained in culture at 5% CO2, at 37° C., in RPMI 1640 medium containing 2 mM L-glutamine, 15 mM HEPES, 100 units/ml penicillin, 0.1 mg/ml streptomycin, 10% horse serum, and 5% foetal calf serum. Serum free medium was supplemented with 1% bovine serum albumin (BSA). Different steroids, used at various concentrations, were initially diluted in ethanol. The final concentration of ethanol in each well, including controls was 0.01%. Conjugate DHEA-BSA was initially diluted in Phosphate Buffer Saline (PBS).
Cells were cultured in the absence of serum for 12 hours, supplemented with DHEA and various synthetic spiro neurosteroids at 10 nM. Cell apoptosis was quantitated with two different methods: The APOPercentage Apoptosis Assay (Biocolor Ltd., Belfast, N. Ireland) was used to quantify apoptosis, according to the manufacturer's instructions. Apoptosis was quantified following cell lysis by measuring the dye incorporated in apoptotic cells at 550 nm (reference filter 620 nm) using a colour filter microplate colorimeter (Dynatech MicroElisa reader, Chantilly, Va.) (see FIGS. 1 and 2). FACS Analysis: FACS analysis of apoptotic cells was performed according to our protocol (Proc Natl Acad Sci USA 101,8209 (2004)). Flow cytometry was performed with FACScan (Becton Dickinson, Heidelberg, Germany) and the results were analysed with the FACScan and Cell Quest softwares (see FIG. 3).

[2] = test system: Dopaminergic neural-crest derived PC12 cells; experiment: Dopamine secretion from dopaminergic PC12 cells (radioimmunoassay); format: cell-based, rat; conditions: 10^-7 M
Description: Dopaminergic neural-crest derived PC12 cells were grown in 6-well plates, coated with poly-L-lysine, at a concentration of 10^6 cells/well. Cells were incubated with neurosteroids or the vehicle for several time periods; for the short-term experiments the incubation time ranged from 5 to 30 minutes and for the long-term from 3 to 48 hours. 1 mL of supernatants were transferred to tubes containing 200 μl 0.1 M HCl for measurement of dopamine, which was measured by radioimmunoassay (TriCat™ RIA, RE29395, IBL Immuno Biological Lab., Hamburg, Germany) using ^125I as a tracer. The analytical sensitivity of the method was 30 pg/ml, its intra-assay CV was 9.5%, and its inter-assay CV was 16.7%. The cross reactivity between dopamine and norepinephrine was <0.013%

MCF-7 cells = experiment: MCF-7 cell growth (MTT), estrogen agonism/antagonism; format: cell-based, human
From the text: (§1) Treatment of postmenopausal syndromes with 17β-estradiol (E2) is associated with a higher risk of developing breast and/or endometrial cancer (Arch Intern Med. 166, 1027 (2006)). E2 stimulation of the proliferation of cancer cells is driven by estrogen receptor alpha (ERα) (Mol. Endocrinol. 13, 969 (1999)). Since BNN-50, BNN-93 and BNN-124 may form two hydrogen bonds with an O—O distance of 10.9-12.5 Å and thus may fit the ERα binding cavity (Chem. Biol. 11, 397 (2004)), it was imperative to examine the estrogen agonism/antagonism properties of these neurosteroids using human adenocarcinoma cells from breast (MCF-7 cells) and uterus (Ishikawa cells) as reporters. […] Differences between control and neurosteroid-treated cells were assessed using one-way ANOVA. […]
(§2) To determine neurosteroid effects on the growth of MCF-7 human mammary (from ATCC) and Ishikawa endometrial adenocarcinoma cells (from ECACC), the cells were cultured at 37° C. in Dulbecco's Minimal Essential Medium (DMEM) supplemented with 10% Fetal Bovine Serum (FBS, from Biochrom) in 5% CO2 and subcultured using a trypsin 0.25%-EDTA 0.02% solution. Neurosteroid effects on the growth of the cells were assessed using MTT [3-(4,5-dimethylthiazol-2-yl)-2,5-diphenyltetrazolium bromide] and standard methodology (Chem. Biol. 11, 397 (2004)). […]

Ishikawa cells [3] = experiment: Ishikawa cell growth (MTT), estrogen agonism/antagonism; format: cell-based, human
From the text: as §1, §2

Ishikawa cells [4] = experiment: Alkaline phosphatase activity of Ishikawa cells, estrogen agonism/antagonism; format: cell-based, human
From the text: Treatment of postmenopausal syndromes with 17β-estradiol (E2) is associated with a higher risk of developing breast and/or endometrial cancer (Arch Intern Med. 166, 1027 (2006)). E2 stimulation of the proliferation of cancer cells is driven by estrogen receptor alpha (ERα) (Mol. Endocrinol. 13, 969 (1999)). Since BNN-50, BNN-93 and BNN-124 may form two hydrogen bonds with an O—O distance of 10.9-12.5 Å and thus may fit the ERα binding cavity (Chem. Biol. 11, 397 (2004)), it was imperative to examine the estrogen agonism/antagonism properties of these neurosteroids using human adenocarcinoma cells from breast (MCF-7 cells) and uterus (Ishikawa cells) as reporters. Full estrogen agonism (E2 at ≧0.1 nM) and non-agonism (vehicle only) controls served to classify the neurosteroids as super, full, partial, weak and marginal agonists depending on whether their estrogenic efficacy was >100, 76-100, 26-75, 10-25 and 1-10% of that of E2 (set equal to 100). Similarly, full antagonism of the effect of E2 (at 0.1 nM) by ICI 182, 780 (at ≧10 nM) and non-antagonism (vehicle only) controls served to classify the neurosteroids as full, partial, weak and marginal antagonists depending on whether their suppression of the effect of E2 was 76-100, 26-75, 10-25 and 1-10% of that of ICI 182, 780. Differences between control and neurosteroid-treated cells were assessed using one-way ANOVA. […]

## C[C@]12CC[C@H](O)CC1=CCC1C2CC[C@@]2(C)C1CC[C@@]21CO1 (stereo partly drawn) [BNN-50, 17β-spiro-[5-androsten-17,2′-oxiran]-3β-ol]
[1]
  pIC50: 10.06
[2]; 3 to 48 hours (FIG. 6B)
  dopamine levels in culture media, long-term: increase of dopamine levels peaking at 24 h
[2]; 5 to 30 min, effect within 10 min (FIG. 6A)
  stimulation of dopamine secretion, short-term: doubling their levels
MCF-7 cells
  E2 agonism (at 1 uM), MCF-7 cell growth: non-significant
MCF-7 cells; against E2 at 0.1 nM
  E2 antagonism (at 1 uM), MCF-7 cell growth: non-significant
Ishikawa cells [3]
  E2 agonism (at 1 uM), Ishikawa cell growth: non-significant
Ishikawa cells [3]; against E2 at 0.1 nM
  E2 antagonism (at 1 uM), Ishikawa cell growth: non-significant
Ishikawa cells [4]
  E2 agonism (at 1 uM), Ishikawa AlkP: non-significant
Ishikawa cells [4]; against E2 at 0.1 nM
  E2 antagonism (at 1 uM), Ishikawa AlkP: marginal (1-10% of that of ICI 182, 780)

— US9777037B2, “Neurosteroid compounds” (BIONATURE E. A. LTD., priority 2007, dated 2017)
